Results: patent US6365746B1, “Stable and water soluble bis Au(I) complexes and their synthesis” (Eastman Kodak Company, priority 1997, dated 2002)

What was measured:
Assay type in all cases: physicochemical
[1] = Stability study of aqueous solution monitored by UV-visible spectroscopy
Experimental: Stability Study of Compound S. To a 1000 mL borosilicate volumetric flask was added 14.7 g of Compound S and water. An aliquot of the gold solution was placed into a quartz cuvette and the keeping characteristics of the solution were monitored using UV-visible spectroscopy over the course of 25 days. A compound, TTT, a known sensitizer having a mesoionic heterocycle was similarly monitored.

[2] = Solubility study in water (gravimetric, filtrate residue); conditions: stirred in the dark 1 hr, filtered, duplicate
Experimental: Solubility Study of compound S.5 H2O. To a 10 mL borosilicate volumetric flask was added 0.25 g of Compound S and a stir bar. Water was added to the 10 mL mark and the suspension was stirred in the dark for 1 hr. The suspension was filtered through a 0.25 μm syringe filter and 3.00 mL of the filtrate was placed into a tared porcelain dish (dried by heating at 125° C. for 12 hours followed by cooling to ambient temperature in a CaCl2 desiccator). The sample was placed into a vacuum desiccator and subjected to vacuum for ca. 60 hours. Finally, the dish and residue were weighed and the mass of the residue was determined by difference.

[3] = Stability in 0.025 N H2SO4 at room temperature (gold precipitation); conditions: 200 mg in 600 mL 0.025 N H2SO4, room temperature, after two weeks (duration of the study)
Experimental: Stability of Compound S versus Compound TTT. Two different batches of Compound TTT and Compound S, each weighing 200 mg, were dissolved in 600 mL of a 0.025 N H2SO4. The solutions were allowed to stand at room temperature. One of the solutions containing Compound TTT had brownish colloidal gold precipitated within 5 days and the other batch had purplish gold specks after 7 days.

| average solubility [2] [mg/mL] | gold precipitate from the solution [3] | Substance | Change in Absorbance @ 235 nm ([1]; day 1) | Change in Absorbance @ 235 nm ([1]; day 4) | Change in Absorbance @ 235 nm ([1]; day 8) | Change in Absorbance @ 235 nm ([1]; day 13) | Change in Absorbance @ 235 nm ([1]; day 20) | Change in Absorbance @ 235 nm ([1]; day 25) |
| --- | --- | --- | --- | --- | --- | --- | --- | --- |
|  |  | bis(1,4,5-trimethyl-1,2,4-triazolium-3-thiolate) gold (I) tetrafluoroborate [TTT, reference compound] | 0 | 0.0222 | 0.0653 | 0.0868 | 0.1108 | 0.1340 |
| 33.6 | no gold precipitate | potassium bis(1-[3-(2-sulfonatobenzamido)phenyl]-5-mercaptotetrazole potassium salt) aurate(I) pentahydrate [Compound S] | 0 | 0.0013 | 0.0015 | 0.0058 | 0.0070 | 0.0064 |
